Non-standard residues stand in square brackets, D forms with d. No end group written: not given here. *: point of attachment. Biotin = O=C1N[C@H]2[C@H](CS[C@H]2CCCCC(=O)*)N1; pT = C[C@@H](OP(=O)(O)O)[C@H](N)C(=O)O; pS = N[C@@H](COP(=O)(O)O)C(=O)O

The subject of assay [1] is GST-CAP1 (a protein having PDZ domain). Kind of assay: Peptide capture on streptavidin-agarose beads in filter plate, tryptic digestion, MALDI MS detection of bound GST-CAP1. Particulars: sample GST-CAP1; m/z as printed in cell above (1358.8 or 1152.6); signal size of about 1000 or more indicates significant binding. The method, then:
(§1) To make the peptide array, the wells of a multiwell (i.e., 96-well filtration plate from Millipore having a pore size of 1.2 μm) filtration plate were first filled with a known volume of a suspension containing Streptavidin-linked agarose beads (Sigma). The biotinylated peptides were added (each in a separate well) and allowed to incubate with the avidin beads for a defined time interval following which vacuum (5-6 in. Hg) was applied to remove excess liquid. The immobilized peptides were then ready to be incubated with the protein mixture (e.g., a brain extract). After incubation, the peptide-protein complexes were washed in parallel, and subsequently subjected to enzymatic digestion (following in-gel digestion protocol). After digestion directly in the membrane plate, the digests were transferred to a MALDI plate for MS analysis, after concentration using a C18 resin-containing Millipore C18 ZIPTIP™ pipette tips.
(§2) In detail, 40 μL of streptavidin-agarose conjugate (Sigma S1638) was added to each well of a 96 well membrane filter plate washed with 200 μL of 1 mM TRIS HCl pH 7.5 (TRIS buffer) buffer using vacuum filtration. The beads were not allowed to dry out. The capture agents (e.g., biotinylated peptides, biotinylated antibodies, tagged proteins) were diluted with 1 mM TRIS HCl pH 7.5 buffer and 20 μL of each capture agent solution (at concentration of 1-2 mg/mL) was added to wells containing the avidin-agarose conjugate. The beads and capture agent were incubated for 1.5 to 2 hrs at room temperature using an orbital shaker (the plate was sealed during the incubation to avoid evaporation of the buffer). After incubation, excess solution was removed and the beads were washed with 200 μL of 1 mM TRIS HCl pH 7.5. A sample containing a protein of interest in TRIS buffer was added to the beads and the sample and beads were incubated overnight at room temperature using an orbital shaker (again using a sealed plate). The liquid was removed and the beads were washed using 200 μL of TRIS buffer. The capture agent-protein complexes, which are attached to the avidin-sepharose beads, were digested with 25 μL of trypsin in TRIS (concentration 20 μg/mL) at 45C for 45 min (again in a sealed plate). The 96 well plate containing the beads was placed in a manifold, and a vacuum was applied to collect each digest in a separate well of another 96-well plate. Using C18 ZIPTIP™ pipette tips (Millipore Corporation or equivalent) the digested peptides were extracted by prewashing the ZIPTIP™ with water/acetonitrile 1:1 then water containing 0.1% trifluoro-acetic acid, and then using the ZIPTIP™ pipette tips to capture the peptides from each well by moving each sample into and out of the tip at least 10 times, and wash the ZIPTIP™ pipette tip with water containing 0.1%TFA (trifluoroacetic acid). The peptides were eluted from the ZIPTIP™ pipette tip with MALDI matrix solution (e.g., 3-4 μL of HCCA at 0.5-1 mg/mL in actetonitrile/water or methanol/acetonitrile/water containing acetic acid) and spotted directly onto a MALDI sample plate.
(§3) The headers for each of the columns of Table 2 indicate, for each experiment, the peptide used as a capture agent. The first column of Table 2 indicates, for each experiment, the sample used. GST-CAP1, GST-FBP21, GST-14-3-3 are described above. “Brain extract” is a soluble protein extract of homogenized mouse brain, and, “QC” indicates the negative controls performed. M/z values indicate mass-to-charge ratios, and numbers in brackets indicate the size of the signal obtained, indicating the amount of the analytes present. In general, a signal size of about 1000 or more indicates significant binding.

In assay [2] the test system is GST-14-3-3. Kind of assay: Peptide capture on streptavidin-agarose beads in filter plate, tryptic digestion, MALDI MS detection of bound GST-14-3-3. Type of assay: binding. Particulars: sample GST-14-3-3; for signal size (number in brackets) of MALDI MS signal: m/z1245.7, signal size of about 1000 or more indicates significant binding; for signal size (number in brackets) of second MALDI MS signal: m/z1255.9, for SmB the signal is […]. The method, then: as §1, §2, §3

Assay [3] deals with mouse brain protein extract. Kind of assay: Peptide capture of proteins from brain extract, tryptic digestion, MALDI MS. Format: binding. Particulars: for signal size of MALDI MS signal: sample brain extract (soluble protein extract of homogenized mouse brain), about 1000 or more indicates significant binding. The method, then: as §1
as §2, with “Using C18 ZIPTIP™ pipette tips (Millipore Corporation or equivalent) the digested peptides were extracted by prewashing the ZIPTIP™ with water/acetonitrile 1:1 then water containing 0.1% trifluoro-acetic acid, and then using the ZIPTIP™ pipette tips to capture the peptides from each well by moving each sample into and out of the tip at least 10 times, and wash the ZIPTIP™ pipette tip with water containing 0.1%TFA (trifluoroacetic acid). The peptides were eluted from the ZIPTIP™ pipette tip with MALDI matrix solution (e.g., 3-4 μL of HCCA at 0.5-1 mg/mL in actetonitrile/water or methanol/acetonitrile/water containing acetic acid) and spotted directly onto a MALDI sample plate.” left out

In the next assay the target is p60Src (Homo sapiens, UniProt P12931). Kind of assay: SmB immobilized on avidin beads incubated with Src, digestion, MALDI MS (QC). Format: binding.
From the text: The following were used as targets: GST-CAP1 (a protein having PDZ domain), GST-FBP21 (a protein having WW domain), GST-14-3-3, p60Src (a protooncogene tyrosine protein kinase known not to bind to any of the peptides listed above), and a mouse brain protein extract. Four of the 8 target peptides are proline-rich peptides, which are identified as SmB, CDC25, LD10 and WBP1, and are known to bind SH3 domains.
as §1, with “After digestion directly in the membrane plate, the digests were transferred to a MALDI plate for MS analysis, after concentration using a C18 resin-containing Millipore C18 ZIPTIP™ pipette tips.” left out
Significant binding was detected between several capture agents and several probes.

The target in assay [4] is T1, GST-FBP21 (a protein having WW domain) (Homo sapiens, UniProt O75554).
T1 construct: GST
T1 sequence (O75554 1-376): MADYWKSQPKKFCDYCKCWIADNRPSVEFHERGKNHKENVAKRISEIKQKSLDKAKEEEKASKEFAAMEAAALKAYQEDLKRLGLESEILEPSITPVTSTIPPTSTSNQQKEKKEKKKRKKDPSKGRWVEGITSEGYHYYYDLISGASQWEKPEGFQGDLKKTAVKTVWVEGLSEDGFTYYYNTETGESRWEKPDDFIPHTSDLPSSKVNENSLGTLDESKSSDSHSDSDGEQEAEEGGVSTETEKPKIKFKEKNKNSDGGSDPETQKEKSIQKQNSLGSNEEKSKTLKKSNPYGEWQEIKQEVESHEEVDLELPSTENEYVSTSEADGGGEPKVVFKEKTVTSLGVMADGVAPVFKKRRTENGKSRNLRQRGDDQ
Kind of assay: Peptide capture on streptavidin-agarose beads in filter plate, tryptic digestion, MALDI MS detection of bound GST-FBP21. Particulars: sample GST-FBP21; m/z 1138.7 or 1152.8; signal size of about 1000 or more indicates significant binding. The method, then:
as §1, §2
The headers for each of the columns of Table 2 indicate, for each experiment, the peptide used as a capture agent. The first column of Table 2 indicates, for each experiment, the sample used. GST-CAP1, GST-FBP21, GST-14-3-3 are described above. “Brain extract” is a soluble protein extract of homogenized mouse brain, and, “QC” indicates the negative controls performed. […]

Assay [5] has as its target T2, GST-FBP21 (a protein having WW domain).
T2 sequence (O75554 whole entry, species assumed, looked up): T1 sequence (O75554 1-376)
Kind of assay: biotinylated peptide on streptavidin-agarose beads, pull-down, trypsin digest, MALDI-MS, ion m/z1152.8.

Assay [6] has as its target GST-14-3-3. Kind of assay: biotinylated peptide on streptavidin-agarose beads, pull-down, trypsin digest, MALDI-MS, ion m/z1245.7.
The target in assay [7] is GST-CAP1 (a protein having PDZ domain). Kind of assay: biotinylated peptide on streptavidin-agarose beads, pull-down, trypsin digest, MALDI-MS, ion m/z1358.8.
Assay [8] has as its target T2, GST-FBP21 (a protein having WW domain). Kind of assay: biotinylated peptide on streptavidin-agarose beads, pull-down, trypsin digest, MALDI-MS, ion m/z1138.7.

In the case of Biotin-PPGMRPPPPGMRRGPPPPGMRPPRP [SmB], in assay [1], the “signal size (number in brackets) of MALDI MS signal” value turned out to be 0. Further, in the assay with GST-14-3-3 [2], the “signal size (number in brackets) of MALDI MS signal” value is given as “(0)” and the “signal size (number in brackets) of second MALDI MS signal” value is on record as “(3,000) is”. Further, the “binding of WD11 repeat protein (WDR11) from brain extract” value in assay [3] (brain extract, spectra matched to known WD11 repeat protein (Table 3)) is given as “binds only the SmB peptide”. Besides, the “binding of p60Src” value at p60Src is given as “did not significantly bind”.
For Biotin-SGSGEQPLT*PVTDL [CDC25], the “signal size (number in brackets) of MALDI MS signal” value in assay [1] is given as “(480)”; in [4], “(500)”; with GST-14-3-3 [2], “(0)”. The “signal size (number in brackets) of second MALDI MS signal” value with GST-14-3-3 [2] is “(800)”.
Regarding Biotin-SGSGGAPPTPPPLPP [LD10], the figures for the “signal size (number in brackets) of MALDI MS signal” value (in [1]; in assay [4]; with GST-14-3-3 [2]) were “(1,600)”, “(15,000)” and “(150)”, respectively.
Regarding Biotin-SGSGGTPPPPYTVG [WBP1], the “signal size (number in brackets) of MALDI MS signal” value was 0 in assay [1], “(9,000)” in assay [4] and 0 with GST-14-3-3 [2]. The “signal size of MALDI MS signal” value in [3] is listed as less than 100.
For the molecule Biotin-SGSGVLIKRRST*EL-COOH [COXG], the “signal size (number in brackets) of MALDI MS signal” value in assay [1] is given as 0; in assay [4], “(30,000)”; in the assay with GST-14-3-3 [2] it was “(500)”. For the same molecule, in assay [3], the “signal size of MALDI MS signal” value was less than 100.
On the same counts, the results for Biotin-SGSGVLIKRRSTEL-OH [COXD] are “(1,100)”, “(200)”, “(3600)” and less than 50.

B1: Kir2.1 biotinylated peptide (Biotin-…-COOH) (peptide)
peptide: Biotin-SGSGPRPLRRESEI-OH
SMILES: CC[C@H](C)[C@H](NC(=O)[C@H](CCC(=O)O)NC(=O)[C@H](CO)NC(=O)[C@H](CCC(=O)O)NC(=O)[C@H](CCCNC(=N)N)NC(=O)[C@H](CCCNC(=N)N)NC(=O)[C@H](CC(C)C)NC(=O)[C@@H]1CCCN1C(=O)[C@H](CCCNC(=N)N)NC(=O)[C@@H]1CCCN1C(=O)CNC(=O)[C@H](CO)NC(=O)CNC(=O)[C@H](CO)NC(=O)CCCC[C@@H]1SC[C@@H]2NC(=O)N[C@@H]21)C(=O)O
On to B1, for which the results for the signal size (in [5]; with GST-14-3-3 [6]; in assay [7]) were 900, 400 and 250, respectively.

B2: COXD biotinylated peptide (Biotin-…-COOH) (peptide)
peptide: Biotin-SGSGVLIKRRSTEL-OH
SMILES: CC[C@H](C)[C@H](NC(=O)[C@H](CC(C)C)NC(=O)[C@@H](NC(=O)CNC(=O)[C@H](CO)NC(=O)CNC(=O)[C@H](CO)NC(=O)CCCC[C@@H]1SC[C@@H]2NC(=O)N[C@@H]21)C(C)C)C(=O)N[C@@H](CCCCN)C(=O)N[C@@H](CCCNC(=N)N)C(=O)N[C@@H](CCCNC(=N)N)C(=O)N[C@@H](CO)C(=O)N[C@H](C(=O)N[C@@H](CCC(=O)O)C(=O)N[C@@H](CC(C)C)C(=O)O)[C@@H](C)O
For B2, the results for the signal size (in assay [8]; in the assay with GST-14-3-3 [6]; in [7]) were 200, 3600 and 1100, respectively.
On to Biotin-SGSGGTPPPPYTVG [WBP1 biotinylated peptide (Biotin-…)], for which the signal size in [8] was 9000.

B3: COXG biotinylated phosphopeptide (Biotin-…*EL-COOH) (peptide)
peptide: Biotin-SGSGVLIKRRS[pT]EL-OH
SMILES: CC[C@H](C)[C@H](NC(=O)[C@H](CC(C)C)NC(=O)[C@@H](NC(=O)CNC(=O)[C@H](CO)NC(=O)CNC(=O)[C@H](CO)NC(=O)CCCC[C@@H]1SC[C@@H]2NC(=O)N[C@@H]21)C(C)C)C(=O)N[C@@H](CCCCN)C(=O)N[C@@H](CCCNC(=N)N)C(=O)N[C@@H](CCCNC(=N)N)C(=O)N[C@@H](CO)C(=O)N[C@H](C(=O)N[C@@H](CCC(=O)O)C(=O)N[C@@H](CC(C)C)C(=O)O)[C@@H](C)OP(=O)(O)O
For B3, the signal size in assay [8] worked out at 30000; in the assay with GST-14-3-3 [6], 500.
In the case of Biotin-SGSGEQPL[pT]PVTDL [CDC25 biotinylated phosphopeptide (Biotin-…*PVTDL)], the signal size came out at 500 in assay [8] and 480 in assay [7].

B4: Kir2.1* biotinylated phosphopeptide (Biotin-…*EI-COOH) (peptide)
peptide: Biotin-SGSGPRPLRRE[pS]EI-OH
SMILES: CC[C@H](C)[C@H](NC(=O)[C@H](CCC(=O)O)NC(=O)[C@H](COP(=O)(O)O)NC(=O)[C@H](CCC(=O)O)NC(=O)[C@H](CCCNC(=N)N)NC(=O)[C@H](CCCNC(=N)N)NC(=O)[C@H](CC(C)C)NC(=O)[C@@H]1CCCN1C(=O)[C@H](CCCNC(=N)N)NC(=O)[C@@H]1CCCN1C(=O)CNC(=O)[C@H](CO)NC(=O)CNC(=O)[C@H](CO)NC(=O)CCCC[C@@H]1SC[C@@H]2NC(=O)N[C@@H]21)C(=O)O
B4: the signal size (in assay [5]; with GST-14-3-3 [6]) was 8000 each time.

For the origin of these results see patent publication US20050178959A1, “Methods and compositions for assessing a sample by maldi mass spectrometry” (priority 2004, published 2005).
